Earlier results on three compounds are cited in patent US9533050B2, “Vaginal ring including meloxicam and an agent for modulating the release of the active principle, which can be used as a continuous-use contraceptive in women” (LABORATORIOS ANDROMACO S.A., priority 2011, dated 2017).

Data set [1] has as its system follicular rupture. Conditions: 25 mg oral once daily for 9 days.
For data set [2], the system named is ovulation. Conditions: women.
The mark [3] stands for this setting: 15 mg tablets orally, older women.

For `Cc1cnc(NC(=O)C2=C(O)c3ccccc3S(=O)(=O)N2C)s1` [meloxicam], under “7.5 mg orally, tablets”, the maximum plasma concentrations is 1.05 µg/mL and the “time of maximum plasma concentration” value is 4.9 h. For the same compound, under setting [3], the plasma concentrations is 3200 ng/mL and the “time of plasma concentration” value is 6 h.

In the case of `CS(=O)(=O)c1ccc(C2=C(c3ccccc3)C(=O)OC2)cc1` [rofecoxib], in data set [1], the inhibition of ovulation result was “not sufficient to inhibit ovulation” and the “women with delay in the late follicular rupture” value is on record as 4 of the 6.

With `COc1ccc2c(c1)c(CC(=O)O)c(C)n2C(=O)c1ccc(Cl)cc1` [Indomethacin, indomethacin], the delay of ovulation in data set [2] was 2 to 12 days.
